The values that follow come from paper PMC8321398, “The discovery of a novel series of compounds with single-dose efficacy against juvenile and adult Schistosoma species” (PLoS Neglected Tropical Diseases, 2021).

As usually defined, the fraction remaining is the share of the starting amount still present when the sample was taken. By half-life is commonly meant the time needed for the level to fall by half in the phase considered. Broadly, the AUC(0-inf) is the area under the concentration-time curve extrapolated to infinity. By bioavailability is commonly meant dose-corrected exposure relative to a reference, in per cent.

Structures are written as SMILES. Values joined by “and” are separate entries in the source; they are usually repeats but may differ in a detail not shown here. Equal values may be shown once.

For data set [1], the system named is HepG2 cells. Nature of the data set: Cytotoxicity, HepG2 cells with MTT. Type of data set: cell-based, human. The note with it: Table 2; hepG2 cell line, 72 h incubation. On the procedure: Activity against mammalian cells was determined using either of two standard assays. The first of these used MRC-5 cells with Alamar blue staining as previously described. The second used HepG2 cells monitored using 3-(4,5-dimethylthiazol-2-yl)-2,5-diphenyltetrazolium bromide (MTT) as previously described.

The nature of data set [2]: Metabolic stability in mouse hepatocytes. The settings on record: hepatocytes (suspension). The class given is in vitro ADME. On the procedure: 100 μM compound stock solution was prepared from 5 μL of 4 mM stock in DMSO + 195 μL MeCN. Working solution (2 μM compound) was prepared using 10 μL of 100 μM stock + 490 μL buffer pH 7.4 (KHB supplemented with CaCl2, NaHCO3, HEPES, fructose, glycine; pH 7.4).
Working solution (25 μL, 2 μM) was added in duplicate to wells in a 0.5 mL per well, 96 well plate which was preincubated to reach 37°C. Hepatocyte suspension (25 μL) was added to each plate, and the plate incubated (37°C, 95% relative humidity with 5% CO2 supply) under gentle mixing (Thermomixer @300 rpm). After designated time periods, ice-cold MeCN (250 μL) was added with a suitable standard. For T = 0 min, ice-cold MeCN (250 μL) with suitable standard was added to the working solution (2 μM) and hepatocyte suspension (25 μL) added. The plates for each time point were shaken, sonicated for 5 mins and kept at 4°C until the final plate was processed. The plates were centrifuged at 4,000 rpm for 20 min, supernatant (110 μL) was mixed with water (110 μL) and the samples analysed using LC-MS/MS.

Data set [3] is described as follows: Mouse pharmacokinetics.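 For all read-outs here: three mice per experiment, dosed in 10% DMSO with 50 mM Na2HPO4 buffer plus Tween-80, plasma levels quantified by LC-MS against a calibration line prepared in blank matrix.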 The class given is in vivo. The note with it: for scaled plasma level, fold above the calculated whole blood IC50: 24 h; for concentration at 24 h: oral, linear kinetics assumed, read-out: plasma level after 24 h scaled from the low-dose oral PK experiment.
Description: Routine pharmacokinetics was carried out as previously described [24] with the following modifications: Swiss albino male mice of average weight 30 g with three animals per experiment. The final vehicle was 10% DMSO, 90% 50 mM Na2HPO4 with 0.5% Tween-80. Compounds were dosed singly (at a variety of doses as noted in the text) or more commonly in mixtures of 5 at 1 mg/kg per compound iv into the lateral tail vein or 2.5 mg/kg per compound by oral gavage. ~30 μl blood samples were taken by venepuncture, into heparinized capillary tubes and subsequently transferred into 0.5 ml micro-centrifuge tubes. Collection time points were 5 min (iv only), 15 min, 30 min, 1 h, 2 h, 4 h, 8 h & 24 h. All blood samples were processed for plasma by centrifugation at 4,000 rpm for 10 min at 4°C within half an hour of collection. Plasma samples were stored at -20°C until bioanalysis.
Prior to LC-MS analysis, all samples were extracted using protein precipitation using acetonitrile as the extraction solvent. For each batch of samples, a calibration line spanning an appropriate concentration range was created by spiking the compound of interest into blank matrix. The calibration line included 10 evenly spaced points. […] Where necessary, additional dilution QCs were included to validate the dilution process. Within each batch at least 3 study samples were assayed pre and post dilution to assess whether there was any impact from the presence of dosing vehicle in the samples. A linear regression was performed on peak area response ratios (analyte:IS) and the results used to back-calculate analyte concentrations. A batch of samples were considered acceptable if 75% of the calibration samples and 66% of the standard QC samples were within 20% of nominal. The linear range of the assay was defined by the calibration line ±20% i.e. the maximum reportable concentration was 120% of the highest concentration calibration sample that passed acceptance criteria. A metric plot of the IS response was reviewed to ensure the integrity of the study sample data.
Data set [4] in a line: In vivo efficacy, mouse model of juvenile (21-day old) S. mansoni infection. The note with it: female, CD1, plasma, mouse, Juvenile infection, formulation Aq, read-out: Plasma conc @24 h (efficacy experiment). On the procedure:
(§1) Prior to in vivo efficacy experiments, a single animal was given a dose of drug (using the same formulation) that was twice as large as that planned for use in the efficacy experiments and was observed periodically for adverse clinical signs for 24h by trained veterinarians. Adverse clinical signs checked include postural defect, vocalization, oculo-nasal discharge, hypersalivation, change in activity, abnormal gait, respiration and pulse, piloerection, loss of pupillary reflex, eyelid reflex, chromodacryorrhea, reaction to handling, tremor, convulsions, prostration, diarrhoea, cachexia, emaciation. […] In vivo efficacy was assessed in female CD1 mice using methods based on those previously described. Mice were infected subcutaneously with 150 cercariae. Test compounds were suspended in 7% Tween-80 / 3% Ethanol / double distilled water and drug dispersal was facilitated by vortexing and using a sonicating water bath (Formulation “Aqueous”). Alternatively, drugs were first dissolved in DMSO, then diluted with corn oil to give a 1:19 DMSO:corn oil solution/suspension of test compound (Formulation “Corn oil”). Dosing was by oral gavage. Mice in the negative control groups were given the drug suspension vehicle only. Positive controls for treatment of adult, day 42 old, infections were treated with PZQ and those for juvenile, day 21 old, infections with artemether, which unlike PZQ is effective against the juvenile worm infections in mice. During and following treatment, mice were closely observed for any ill effects by staff experienced in animal handling. This involved individuals who were blinded to the treatment groups. Effects they were trained to look for included hunching, immobility, piloerection, subdued behaviour, diarrhoea and loss of body condition. None were seen. Worms were recovered by portal perfusion with citrate saline 8–14 days post treatment and counted. Differences between groups relative to the non-drug treated controls were assessed for statistical significance by Student’s unpaired t-test using GraphPad Prism Software. P values are presented as follows:- ns–P > 0.05 (not significant), * P ≤ 0.05, ** P ≤ 0.01, *** P ≤ 0.001, **** P ≤ 0.0001.
(§2) For pharmacokinetic analysis during the in vivo efficacy experiments individual animals were only sampled once. Samples were taken from one animal in each experimental group at each of 1, 4, 8 h and samples from two animals in each group were taken at 24 h.

The subject of data set [5] is S. mansoni juvenile worms. The data set is described as above. The settings on record: mouse; for Worms remaining: Juvenile infection, formulation Aq. On the procedure: as §1, §2
Data set [6] in a line: Human dose prediction with the PK Tool. The source says:
• We assume that the plasma concentration achieved in mouse sufficient to kill worms is the same as the plasma concentration we need to achieve in humans to see the same effect. A component element is an assumption that the mechanism of S. mansoni worm reduction in mouse and human are the same. • We assume that allometric scaling can be used to estimate human clearance based on mouse clearance. One factor that would make this assumption unsafe is if the clearance mechanisms and rates for our series in mouse and human were different. Fortunately, in vivo clearance correlates well with metabolic stability calculated from in vitro mouse hepatocyte measurements (Fig 7A). In vitro stability estimates in mouse and human hepatocytes are also fairly well correlated (Fig 7B).
Estimates of dose prediction in human were made using the PK Tool. A simple estimate of an effective human dose for LSHTM-3520 can be made by making the assumption that a plasma concentration of 2,000 ng/mL 24 h after oral administration (the same as that achieved in Fig 6B) would give sufficient clinical efficacy. […] To design compounds with a lower predicted human dose we pursued two strategies, one to improve potency by optimisation of the core and substituents, the other to decrease clearance through blocking positions we thought likely to be vulnerable to metabolic enzymes and/or conformational restriction.
Assuming linear kinetics the plasma levels scaled from the low-dose oral PK experiment (2.5 mg/kg) for LSHTM-3520 (8 ng/mL) after 24 h would be 160 ng/mL from […] and 640 ng/mL at […].

As to `CC(C)c1nc2cnc(-c3ccc(F)c(C(F)(F)F)c3)cn2c1-c1c(F)cc(O)cc1F` [LSHTM-3520], the “Cytotox TC50” value in data set [1] is 7,130 nM. Further, the share remaining at 0.5 h, 1 µM in data set [2] (pH 7.4, 30 min incubation, read-out: Mouse hepatocyte % remaining at 30 min) was found to be 65%. In addition, the amount remaining at 1.5 h, 1 µM in data set [2] (pH 7.4, 90 min incubation, read-out: Mouse hepatocyte % remaining at 90 min) is 44%. The half-life at 1 µM in data set [2] (pH 7.4, calculated from % remaining) was 1.25 h. Also, the Clobs in data set [3] (0.5 mg/kg iv, in a mixture of 5 compounds, 0.5 mg/kg) was 18.3 mL/min/kg and 18 mL/min/kg. Besides, the “scaled plasma level, fold above the calculated whole blood IC50” value was 1.3 fold in data set [3] (50 mg/mL (so in the source)) and 5.3 fold in data set [3] (200 mg/mL (so in the source)). Further, the “Plasma conc @ 24 h after oral dose” value in data set [3] ([…] oral, mixture of 5 compounds, […]) stood at 8.1 ng/mL. Also, the AUC(0-inf) in data set [3] (male, Swiss albino, plasma, 0.5 mg/kg iv, in a mixture of 5 compounds) was determined as 500 ng·h/mL. Moreover, in data set [3] (male, Swiss albino, plasma, 0.5 mg/kg iv, in a mixture of 5 compounds, read-out: Vss), the Vd came out at 7.1 L/kg. Moreover, the bioavailability in data set [3] (male, Swiss albino, plasma, 2.5 mg/kg oral, mixture of 5 compounds, calculated values > 100% shown as 100) is 50%. Moreover, the half-life in data set [3] (male, Swiss albino, plasma, iv, 0.5 mg/kg, 0.5 mg/kg iv, in a mixture of 5 compounds, sampled over 24 h) is 7 h. Moreover, the concentration at 24 h was 160 ng/mL in data set [3] (male, Swiss albino, plasma, 50 mg/mL, scaled from […] to 50 mg/mL (so in the source)); 640 ng/mL in data set [3] (male, Swiss albino, plasma, 200 mg/mL, scaled from […] to 200 mg/mL (so in the source)); 208 ng/mL in data set [4] (oral 50 mg/kg); 1980 ng/mL in data set [4] (oral 200 mg/kg). Besides, the “efficacy in vivo against juvenile worm infection” value in data set [5] (21-day old infections, single oral dose, Aqueous formulation (Fig 8)) is on record as “effective”. Also, the Worms remaining was determined as 62% in data set [5] (oral 50 mg/kg) and 16% in data set [5] (oral 200 mg/kg). Further, the “human single oral dose prediction” value in data set [6] (PK Tool, predicted plasma conc at 24 h 7 fold above calculated adult worm blood potency) is 25 mg/kg. Besides, the “predicted single human oral dose (simple estimate)” value in data set [6] (target 2,000 ng/mL at 24 h, allometric scaling from mouse, exponent 0.75) is listed as 48 mg/kg.
